pIC50: −log10 of the molar value. Where no end group is shown, it is not given here.

Test [1] addresses T1, purified I-Au class II molecules (Mus musculus, UniProt P06344+P14438).
T1 sequence (P14438 1-227): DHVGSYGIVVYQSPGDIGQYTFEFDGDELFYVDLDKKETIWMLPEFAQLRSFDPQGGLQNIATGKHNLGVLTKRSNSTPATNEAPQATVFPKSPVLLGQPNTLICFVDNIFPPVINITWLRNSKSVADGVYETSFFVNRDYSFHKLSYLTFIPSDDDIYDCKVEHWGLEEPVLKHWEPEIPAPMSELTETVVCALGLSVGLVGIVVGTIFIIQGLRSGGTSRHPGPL
T1 sequence (P06344 28-263): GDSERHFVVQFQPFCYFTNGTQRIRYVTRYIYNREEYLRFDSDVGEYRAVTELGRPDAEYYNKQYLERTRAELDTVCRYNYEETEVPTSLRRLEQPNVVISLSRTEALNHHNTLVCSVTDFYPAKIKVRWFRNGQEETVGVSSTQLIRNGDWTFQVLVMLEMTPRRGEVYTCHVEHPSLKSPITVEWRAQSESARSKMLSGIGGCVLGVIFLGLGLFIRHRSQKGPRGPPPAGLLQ
Put plainly: Class II-peptide-binding inhibition assay, I-Au.

The test system of test [2] is T cell-enriched splenic cells from 12-14-wk-old female BWF1 mice. Put plainly: Proliferation of unprimed splenic T cells in response to peptides. The test is classed as cell-based, mouse. The settings on record: result in words.
A further test concerns BWF1 mice. Kind of test: Pathogenic potential: immunization of young BWF1 mice with peptides. The format is in vivo, mouse. The settings on record: p34 or p84 immunization vs PBS/CFA/alum; p <0.05.
Test [3] concerns the target I-Ad class II molecule (mouse). Put plainly: radioligand binding.

What is called pIC50 is the negative decadic logarithm of the IC50, by convention in mol/L. In test [1], `C[C@H](NC(=O)[C@H](C)NC(=O)[C@H](Cc1c[nH]cn1)NC(=O)[C@H](C)NC(=O)[C@H](C)NC(=O)[C@H](Cc1c[nH]cn1)NC(=O)[C@H](C)NC(=O)[C@H](C)NC(=O)[C@H](Cc1c[nH]cn1)NC(=O)[C@H](C)NC(=O)[C@H](C)NC(=O)[C@H](Cc1c[nH]cn1)NC(=O)[C@H](C)NC(=O)[C@H](C)NC(=O)[C@H](Cc1c[nH]cn1)NC(=O)[C@H](C)NC(=O)[C@@H](N)Cc1ccc(O)cc1)C(=O)O` [RO IV] gave a negative-log IC50 (pIC50) of 8.10.
MNWVKQSHGKSL [p34]: in test [2], the “proliferative responses in naive BWF1 T cells” value is on record as “elicit proliferative responses”. The plasma creatinine levels entry in the test on BWF1 mice was “increase in plasma creatinine levels”.
Compound “OVA 323-336 (from UniProt P01012 324-337) (peptide)” gave a negative-log IC50 (pIC50) in test [3] of 6.96.

The values above are taken from paper PMC2192064 (The Journal of Experimental Medicine, 1995).
